From US20240342111A1, “ISOMER-SPECIFIC NEUROPROTECTIVE EFFECT OF NATURAL RESERVATROL” (priority 2021, published 2024)

Assays:
PARP1 [1] = experiment: Immunoblot of chromatin fraction for PARP1 and PAR; assay type: cell-based, rat; conditions: 50 μM, 1 hour
8-oxo-2′-dG = experiment: Quantification of 8-oxo-2′-dG (oxidation level of neuronal DNA); assay type: cell-based, rat; conditions: 50 μM, 16 hours
Description: Although Aβ exacerbates neuronal DNA damage through an unknown mechanism, see Suberbielle, E. et al. Physiologic brain activity causes DNA double-strand breaks in neurons, with exacerbation by amyloid-beta. […] Elife 7, doi:ARTN e34334 10.7554/eLife.34334 (2018), and (see FIG. 7 at (b)). […] Mol Cell 65, 932-940 e936, doi:10.1016/j.molcel.2017.01.003 (2017), in a time-dependent manner (see FIG. 7 at (c)). […] Representative immunoblots and quantification for the auto-PARylation level of PARP1 after the siRNA knockdown of TyrRS.

[2] = Spectral analysis (absorption spectrum) of cis- and trans-RSV conformation in solution; assay type: physicochemical; conditions: for peak absorption: lower concentrations (≤10 μM), range 250-400 nm
Experimental: Nature 519, 370-373, doi:10.1038/nature14028 (2015). […] Mol Nutr Food Res 63, e1800715, doi:10.1002/mnfr.201800715 (2019). […] Commercially available cis- and trans-RSV were dissolved in ethanol to generate the stock solutions. […] The dilutions were done in the dark and samples were protected from light. […] Low dose trans-RSV evokes a paradoxical shift in equilibrium towards the cis conformation in solution.
Each stock was diluted 1000× in DMSO to prepare different stocks to obtain the final working solutions and micromolar concentrations to obtain the absorption spectrum. The control solution was prepared using ethanol and DMSO (0.1% ethanol). Absorption was measured using Spectramax 300R at room temperature. Stock solutions were stored at −20° C., and the working solutions were prepared fresh and protected from light during the preparation.

H3 = experiment: Immunoblot for histone H3 acetylation (Ac-K9-H3, Ac-K56-H3); assay type: cell-based, rat; conditions: 15 minutes
TyrRS = biological target: T1, TyrRS (Rattus norvegicus, UniProt Q4KM49); experiment: Immunostaining of neuronal TyrRS, RSV alone or in combination with Aβ; assay type: cell-based; conditions: 16 hours; for TyrRS protein levels: alone, 50μ; for Aβ-mediated downregulation of TyrRS: co-treatment 50μ with Aβ 50 nM
T1 construct: Primary cortical neuron cultures were obtained from E18 Sprague Dawley rats' cortices; endogenous in cells; host or cells: rat primary cortical neurons (E18 Sprague Dawley)
T1 sequence (Q4KM49 1-528): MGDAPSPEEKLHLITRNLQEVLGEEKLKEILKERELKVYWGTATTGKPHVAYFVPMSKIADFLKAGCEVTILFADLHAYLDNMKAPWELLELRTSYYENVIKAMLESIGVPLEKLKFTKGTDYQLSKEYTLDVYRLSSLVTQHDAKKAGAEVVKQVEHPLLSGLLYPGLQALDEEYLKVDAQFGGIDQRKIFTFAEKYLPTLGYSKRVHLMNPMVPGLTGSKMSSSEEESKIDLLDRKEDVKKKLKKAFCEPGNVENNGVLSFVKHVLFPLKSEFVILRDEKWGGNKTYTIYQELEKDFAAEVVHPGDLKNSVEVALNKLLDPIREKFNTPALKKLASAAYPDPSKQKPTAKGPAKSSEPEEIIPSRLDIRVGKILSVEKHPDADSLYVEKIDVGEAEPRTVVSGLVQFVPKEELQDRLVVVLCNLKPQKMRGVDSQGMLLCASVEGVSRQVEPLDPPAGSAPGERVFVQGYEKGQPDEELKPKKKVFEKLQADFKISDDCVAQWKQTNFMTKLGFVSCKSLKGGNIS

Cortical neurons = experiment: Aβ-induced neurite degeneration (MAP2 immunostaining); assay type: cell-based, rat; conditions: for Aβ-induced neurotoxicity (neurite degeneration): pre-treated 50 μM 16 hours, then Aβ 50 nM 24 hours
Experimental: Cells were then exposed to excitotoxic NMDA (500 μM for 5 minutes) and viability was assessed using MTT assay after 24 hours. […] Rat cortical neurons (DIV 9) were treated with NMDA (50 μM for 5 minutes) and then with cis-RSV for 24 hours. Cells were then exposed to excitotoxic NMDA (500 μM for 5 minutes) and viability was assessed using MTT assay after 24 hours. […] Cell viability was assessed after 48 hours. […] Representative images (scale bar, 20 μm) for cortical neurons following neurite degeneration (MAP2—neurite marker, magenta and DAPI—nuclear marker, blue). […] Neurons were immunoassayed with anti-MAP2 antibody and quantified for neurite degeneration. The data represents mean±SEM for n=3 experiments with significance measured using Student's paired t-test.
Amyloid Beta oligomers were prepared as described previously, see Ahmed, M. et al. Structural conversion of neurotoxic amyloid-beta (1-42) oligomers to fibrils. Nat Struct Mol Biol 17, 561-567, doi:10.1038/nsmb.1799 (2010) and Wang, X. et al. Elevated Neuronal Excitability Due to Modulation of the Voltage-Gated Sodium Channel Nav1.6 by A beta (1-42). Front Neurosci-Switz 10, doi:ARTN 94 10.3389/fnins.2016.00094 (2016). […]
Neurite degeneration index was calculated as described previously, see Jin, M. et al. Soluble amyloid beta-protein dimers isolated from Alzheimer cortex directly induce Tau hyperphosphorylation and neuritic degeneration. […] The samples to be analyzed for neurite degeneration were stained using the standard immunofluorescence procedure with MAP2 (Alexa fluor 647) for neurites and DAPI staining for the nucleus. Neurite degeneration quantification was done using 5-6 regions of interest of equal sizes from each treatment condition. […] To detect degenerated neurites, we used the particle analyzer module of ImageJ and calculated the percentage of the area of the small fragments or particles (size=3-10 μm^2) to the intact neurites (size>25 μm2) with information derived from the binary images. A degeneration index (DI) was calculated as the fragmented neurite area ratio over intact neurite area. […]

PARP1 [3] = experiment: Auto-PARylation of PARP1 after siRNA knockdown of TyrRS; assay type: cell-based, rat; conditions: 15 minutes
RAD51 = experiment: Immunoblot for RAD51 levels; assay type: cell-based, rat; conditions: 4 hours

Compound	PARP1 and PAR in the chromatin fraction (PARP1 [1])	levels of 8-oxo-dG (8-oxo-2′-dG)	specific absorption peak [2] [nm]	conformation in solution ([2]; cis-RSV, 5-50 μM)	peak absorption [2] [nm]	acetylation level of H3 lysine 9 (Ac-K9-H3) (H3)	TyrRS protein levels (TyrRS)	Aβ-mediated downregulation of TyrRS (TyrRS)	Aβ-induced neurotoxicity (neurite degeneration) (Cortical neurons)	auto-PARylation of PARP1 after knockdown of TyrRS (PARP1 [3]; cis-RSV 25 μM)	RAD51 levels (RAD51; cis-RSV 5-50 μM)	conformation in solution ([2]; concentrations ≤10 μM, in DMSO, protected from light)	conformation in solution ([2]; high dose (≥25 μM))	acetylation level of H3 lysine 56 (Ac-K56-H3) (H3)	neurotoxicity (neurite degeneration) by itself (Cortical neurons; 50 μM, without Aβ)	auto-PARylation of PARP1 after knockdown of TyrRS (PARP1 [3]; trans-RSV 5 μM)	RAD51 levels (RAD51; low dose 5 μM)	RAD51 levels (RAD51; ≥10 μM)
Oc1ccc(/C=C\c2cc(O)cc(O)c2)cc1 [cis-RSV, cis-resveratrol]	downregulated PARP1 (170 kDa) and PAR modification in the chromatin fraction	downregulated both the protein levels of OGG1 and the levels of 8-oxo-dG	295	retains its conformation across the different doses	295	upregulated the acetylation levels of H3 lysine 9 (Ac-K9-H3)	upregulation of the TyrRS protein levels	protected against Aβ-mediated downregulation of TyrRS	protected against Aβtoxicity	blunted after knockdown of TyrRS	upregulated it	–	–	–	–	–	–	–
Oc1ccc(/C=C/c2cc(O)cc(O)c2)cc1 [trans-RSV, trans-resveratrol]	enhanced the association (‘trapping’) of PARP1 with chromatin	upregulated the levels of 8-oxo-2′-deoxyguanosine (8-oxo-dG)	330	–	295	downregulated the lysine 9 and 56 acetylation levels of H3	downregulation	exacerbated the downregulation of TyrRS	exacerbating Aβtoxicity	–	–	exists majorly in cis-RSV conformation	retains its trans conformation	downregulated the lysine 9 and 56 acetylation levels of H3	itself induced neurotoxicity	blunted after knockdown of TyrRS	upregulated it	downregulated RAD51 in a dose-dependent manner
